# In patent US5089401A, “Method for the preparation of fructose-containing oligosaccharide” (Ensuiko Sugar Refining Co., Ltd., priority 1990, dated 1992):
# Molecular target: T1, β-fructofuranosidase (Microbacterium saccharophilum, UniProt Q8VW87)
# T1 construct: K-1 culture; crude supernatant or purified preparation
# T1 sequence (Q8VW87 37-578): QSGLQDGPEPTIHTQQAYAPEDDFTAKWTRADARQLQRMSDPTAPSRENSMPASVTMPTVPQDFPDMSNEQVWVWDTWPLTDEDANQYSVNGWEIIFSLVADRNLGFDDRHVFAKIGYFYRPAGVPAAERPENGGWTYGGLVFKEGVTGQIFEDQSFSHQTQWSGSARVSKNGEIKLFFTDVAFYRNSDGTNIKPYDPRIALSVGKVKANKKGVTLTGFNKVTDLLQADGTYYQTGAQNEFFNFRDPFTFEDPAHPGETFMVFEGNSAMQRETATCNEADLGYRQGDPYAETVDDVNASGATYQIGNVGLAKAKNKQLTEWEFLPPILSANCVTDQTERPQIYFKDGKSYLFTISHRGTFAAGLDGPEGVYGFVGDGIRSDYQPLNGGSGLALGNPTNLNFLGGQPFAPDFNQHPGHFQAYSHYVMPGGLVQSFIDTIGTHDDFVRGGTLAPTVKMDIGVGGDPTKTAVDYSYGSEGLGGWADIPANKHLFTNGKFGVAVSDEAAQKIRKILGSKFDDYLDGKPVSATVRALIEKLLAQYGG
# Test: decomposition of saccharides by the β-fructofuranosidase (substrate specificity)
# Format: biochemical, Arthrobacter sp. K-1
# Details: not given
row,Molecule,activity of the enzyme in the decomposition of the saccharide
1,OC[C@H]1O[C@H](OC[C@H]2O[C@H](O[C@]3(CO)O[C@H](CO)[C@@H](O)[C@@H]3O)[C@H](O)[C@@H](O)[C@@H]2O)[C@H](O)[C@@H](O)[C@H]1O [raffinose],active in the decomposition
2,OC[C@H]1O[C@@](CO)(O[C@H]2O[C@H](CO)[C@@H](O)[C@H](O)[C@H]2O)[C@@H](O)[C@@H]1O [sucrose],active in the decomposition
3,OC[C@H]1O[C@@](CO)(OC[C@H]2O[C@H](O[C@]3(CO)O[C@H](CO)[C@@H](O)[C@@H]3O)[C@H](O)[C@@H](O)[C@@H]2O)[C@@H](O)[C@@H]1O [neokestose],active in the decomposition
4,OC[C@H]1O[C@@](CO)(OC[C@@]2(OC[C@@]3(O[C@H]4O[C@H](CO)[C@@H](O)[C@H](O)[C@H]4O)O[C@H](CO)[C@@H](O)[C@@H]3O)O[C@H](CO)[C@@H](O)[C@@H]2O)[C@@H](O)[C@@H]1O [nistose],hardly exhibits activity
5,inulobiose,hardly exhibits activity
6,"OC[C@H]1O[C@@](CO)(O[C@H]2OC[C@@H](O)[C@H](O)[C@H]2O)[C@@H](O)[C@@H]1O [xylsucrose, O-β-D-fructofuranosyl-(2→1)-O-α-D-xylopyranoside]",active in the decomposition
7,OC[C@H]1O[C@@](CO)(OC[C@@]2(O[C@H]3O[C@H](CO)[C@@H](O)[C@H](O)[C@H]3O)O[C@H](CO)[C@@H](O)[C@@H]2O)[C@@H](O)[C@@H]1O [1-kestose],hardly exhibits activity
8,"OC[C@H]1O[C@@](CO)(O[C@H]2O[C@H](CO)[C@@H](O[C@H]3O[C@H](CO)[C@@H](O)[C@H](O)[C@H]3O)[C@H](O)[C@H]2O)[C@@H](O)[C@@H]1O [elrose, maltosyl fructoside]",active in the decomposition
9,OC[C@H]1O[C@@](CO)(OC[C@H]2O[C@](O)(CO)[C@@H](O)[C@@H]2O)[C@@H](O)[C@@H]1O [levan biose],hardly exhibits activity
10,OC[C@H]1O[C@H](OC[C@H]2O[C@H](OC[C@H]3O[C@H](O[C@]4(CO)O[C@H](CO)[C@@H](O)[C@@H]4O)[C@H](O)[C@@H](O)[C@@H]3O)[C@H](O)[C@@H](O)[C@H]2O)[C@H](O)[C@@H](O)[C@H]1O [stachyose],active in the decomposition

# Tested on: bifidus bacteria
# Test: not given
# Details: cited from earlier work
row,Molecule,activity as a growth factor of bifidus bacteria
1,"OC[C@H]1O[C@@H](O[C@H]2[C@H](O)[C@@H](O)[C@@H](O[C@]3(CO)O[C@H](CO)[C@@H](O)[C@@H]3O)O[C@@H]2CO)[C@H](O)[C@@H](O)[C@H]1O [lactosucrose, O-β-D-galactopyranosyl-(1→4)-O-α-D-glucopyranosyl-(1→2)-O-β-D-fructofuranoside]",has an activity as a growth factor of bifidus bacteria

# Molecular target: T1, β-fructofuranosidase
# Test: not given
# Format: biochemical, Arthrobacter sp. K-1
# Details: not given
row,Molecule,inhibitive effect of the ion on the enzyme
1,silver,susceptible to the inhibitive effect
2,zinc,susceptible to the inhibitive effect
3,mercury,susceptible to the inhibitive effect
4,copper,susceptible to the inhibitive effect
